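Cells were grown in 96-well plates and exposed to each compound for 48 hours at five concentrations; endpoints were interpolated linearly between bracketing concentrations, or set to the highest concentration if not reached. TGI denotes the concentration required for complete inhibition of growth.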
Columns and labels:
Test in all cases: NCI anticancer screen, dose series, 48 h
SW-620 colon = tested on: SW-620 colon
HCT-116 colon = tested on: HCT-116 colon
EKVX NSCLC = tested on: EKVX NSCLC
SK-MEL-5 melanoma = tested on: SK-MEL-5 melanoma
HT29 colon = tested on: HT29 colon
SF-268 CNS = tested on: SF-268 CNS
ACHN renal = tested on: ACHN renal
COLO 205 colon = tested on: COLO 205 colon
OVCAR-5 ovarian = tested on: OVCAR-5 ovarian
CAKI-1 renal = tested on: CAKI-1 renal
MOLT-4 leukemia = tested on: MOLT-4 leukemia
HOP-62 NSCLC = tested on: HOP-62 NSCLC
MDA-N = tested on: MDA-N
SF-295 CNS = tested on: SF-295 CNS
M14 melanoma = tested on: M14 melanoma
SK-MEL-28 melanoma = tested on: SK-MEL-28 melanoma
786-0 renal = tested on: 786-0 renal
NCI/ADR-RES ovarian = tested on: NCI/ADR-RES ovarian
MCF7 breast = tested on: MCF7 breast
NCI-H522 lung = tested on: NCI-H522 lung
SR leukemia = tested on: SR leukemia
SK-OV-3 ovarian = tested on: SK-OV-3 ovarian
PC-3 prostate = tested on: PC-3 prostate
HOP-92 NSCLC = tested on: HOP-92 NSCLC
HS 578T breast = tested on: HS 578T breast
NCI-H460 lung = tested on: NCI-H460 lung
A498 renal = tested on: A498 renal
OVCAR-8 ovarian = tested on: OVCAR-8 ovarian
T-47D breast = tested on: T-47D breast
HCT-15 colon = tested on: HCT-15 colon
KM12 colon = tested on: KM12 colon
SNB-75 CNS = tested on: SNB-75 CNS
OVCAR-4 ovarian = tested on: OVCAR-4 ovarian
MALME-3M melanoma = tested on: MALME-3M melanoma
U251 CNS = tested on: U251 CNS
A549 NSCLC = tested on: A549 NSCLC
LOX IMVI melanoma = tested on: LOX IMVI melanoma
OVCAR-3 ovarian = tested on: OVCAR-3 ovarian
MDA-MB-435 = tested on: MDA-MB-435
SK-MEL-2 melanoma = tested on: SK-MEL-2 melanoma
SN12C renal = tested on: SN12C renal
UACC-62 melanoma = tested on: UACC-62 melanoma
UO-31 renal = tested on: UO-31 renal
HL-60(TB) leukemia = tested on: HL-60(TB) leukemia
IGROV1 ovarian = tested on: IGROV1 ovarian
UACC-257 melanoma = tested on: UACC-257 melanoma
SNB-19 CNS = tested on: SNB-19 CNS
TK-10 renal = tested on: TK-10 renal
BT-549 breast = tested on: BT-549 breast
RXF 393 renal = tested on: RXF 393 renal
DU-145 prostate = tested on: DU-145 prostate
HCC-2998 colon = tested on: HCC-2998 colon
SF-539 CNS = tested on: SF-539 CNS
MDA-MB-231 breast = tested on: MDA-MB-231 breast
NCI-H23 lung = tested on: NCI-H23 lung
NCI-H226 lung = tested on: NCI-H226 lung
K-562 leukemia = tested on: K-562 leukemia
RPMI-8226 leukemia = tested on: RPMI-8226 leukemia

CNC(=O)OCc1c(COC(=O)NC)c(-c2ccc(-c3ccccc3)cc2)n(C)c1C gave a TGI (SW-620 colon) of 28.3 µM, a TGI (HCT-116 colon) of 14.1 µM and a TGI (EKVX NSCLC) of 11.1 µM. The TGI (SK-MEL-5 melanoma) was 14 µM, the TGI (HT29 colon) was 13.9 µM and the TGI (SF-268 CNS) was 5.32 µM. For the same molecule, the TGI (ACHN renal) was 4.27 µM, the TGI (COLO 205 colon) was 16.5 µM and the TGI (OVCAR-5 ovarian) was 8.26 µM. The TGI (CAKI-1 renal) was 5.14 µM, the TGI (MOLT-4 leukemia) was 8.95 µM and the TGI (HOP-62 NSCLC) was 18.8 µM. For the same molecule, the TGI (MDA-N) was 18.5 µM, the TGI (SF-295 CNS) was 10.8 µM and the TGI (M14 melanoma) was 6.84 µM. It also gave a TGI (SK-MEL-28 melanoma) of 28.7 µM, a TGI (786-0 renal) of 10.2 µM and a TGI (NCI/ADR-RES ovarian) of 12.6 µM. The TGI (MCF7 breast) was 14.5 µM, the TGI (NCI-H522 lung) was 4.04 µM and the TGI (SR leukemia) was over 100 µM. For the same molecule, the TGI (SK-OV-3 ovarian) was 11.8 µM, the TGI (PC-3 prostate) was 12.3 µM and the TGI (HOP-92 NSCLC) was 11.9 µM. For the same molecule, the TGI (HS 578T breast) was over 68.2 µM, the TGI (NCI-H460 lung) was 12.2 µM and the TGI (A498 renal) was 2.39 µM. It also gave a TGI (OVCAR-8 ovarian) of 10.4 µM, a TGI (T-47D breast) of 35.2 µM and a TGI (HCT-15 colon) of 9.43 µM. The TGI (KM12 colon) was 24.9 µM, the TGI (SNB-75 CNS) was 10.6 µM and the TGI (OVCAR-4 ovarian) was 10.9 µM. The TGI (MALME-3M melanoma) was 10.6 µM, the TGI (U251 CNS) was 10.9 µM and the TGI (A549 NSCLC) was 14.1 µM. It also gave a TGI (LOX IMVI melanoma) of 11.7 µM, a TGI (OVCAR-3 ovarian) of 7.88 µM and a TGI (MDA-MB-435) of 21.9 µM. The TGI (SK-MEL-2 melanoma) was 4.96 µM, the TGI (SN12C renal) was 3.8 µM and the TGI (UACC-62 melanoma) was 5.46 µM. It also gave a TGI (UO-31 renal) of 3.1 µM, a TGI (HL-60(TB) leukemia) of 18.1 µM and a TGI (IGROV1 ovarian) of 12 µM. For the same molecule, the TGI (UACC-257 melanoma) was 37.3 µM, the TGI (SNB-19 CNS) was 16.9 µM and the TGI (TK-10 renal) was 15.4 µM. The TGI (BT-549 breast) was 7.11 µM, the TGI (RXF 393 renal) was 2.91 µM and the TGI (DU-145 prostate) was 9.4 µM. For the same molecule, the TGI (HCC-2998 colon) was 13.1 µM, the TGI (SF-539 CNS) was 8.37 µM and the TGI (MDA-MB-231 breast) was 10.2 µM. It also gave a TGI (NCI-H23 lung) of 10.2 µM and a TGI (NCI-H226 lung) of 32.5 µM.

Work on O=C(O)CSCCc1ccccc1 yielded a TGI (SW-620 colon) of over 100 µM, a TGI (HCT-116 colon) of over 100 µM and a TGI (EKVX NSCLC) of over 100 µM. The TGI (SK-MEL-5 melanoma) was over 100 µM, the TGI (HT29 colon) was over 100 µM and the TGI (SF-268 CNS) was over 100 µM. It also gave a TGI (ACHN renal) of over 100 µM, a TGI (COLO 205 colon) of over 100 µM and a TGI (OVCAR-5 ovarian) of over 100 µM. It also gave a TGI (CAKI-1 renal) of over 100 µM, a TGI (MOLT-4 leukemia) of over 100 µM and a TGI (HOP-62 NSCLC) of over 100 µM. It also gave a TGI (MDA-N) of over 100 µM, a TGI (SF-295 CNS) of over 100 µM and a TGI (M14 melanoma) of over 100 µM. It also gave a TGI (SK-MEL-28 melanoma) of over 100 µM, a TGI (786-0 renal) of over 100 µM and a TGI (NCI/ADR-RES ovarian) of over 100 µM. It also gave a TGI (K-562 leukemia) of over 100 µM, a TGI (MCF7 breast) of over 100 µM and a TGI (NCI-H522 lung) of over 100 µM. It also gave a TGI (SR leukemia) of over 100 µM, a TGI (SK-OV-3 ovarian) of over 100 µM and a TGI (PC-3 prostate) of over 100 µM. It also gave a TGI (HOP-92 NSCLC) of over 100 µM, a TGI (HS 578T breast) of over 100 µM and a TGI (NCI-H460 lung) of over 100 µM. The TGI (A498 renal) was over 100 µM, the TGI (OVCAR-8 ovarian) was over 100 µM and the TGI (T-47D breast) was over 100 µM. It also gave a TGI (HCT-15 colon) of over 100 µM, a TGI (KM12 colon) of over 100 µM and a TGI (SNB-75 CNS) of over 100 µM. The TGI (OVCAR-4 ovarian) was over 100 µM, the TGI (MALME-3M melanoma) was over 100 µM and the TGI (U251 CNS) was over 100 µM. The TGI (RPMI-8226 leukemia) was over 100 µM, the TGI (A549 NSCLC) was over 100 µM and the TGI (LOX IMVI melanoma) was over 100 µM. It also gave a TGI (OVCAR-3 ovarian) of over 100 µM, a TGI (MDA-MB-435) of over 100 µM and a TGI (SK-MEL-2 melanoma) of over 100 µM. For the same molecule, the TGI (SN12C renal) was over 100 µM, the TGI (UACC-62 melanoma) was over 100 µM and the TGI (UO-31 renal) was over 100 µM. It also gave a TGI (HL-60(TB) leukemia) of 1.98 µM, a TGI (IGROV1 ovarian) of over 100 µM and a TGI (UACC-257 melanoma) of over 100 µM. It also gave a TGI (SNB-19 CNS) of over 100 µM, a TGI (TK-10 renal) of over 100 µM and a TGI (BT-549 breast) of over 100 µM. It also gave a TGI (RXF 393 renal) of over 100 µM, a TGI (DU-145 prostate) of over 100 µM and a TGI (SF-539 CNS) of over 100 µM. The TGI (MDA-MB-231 breast) was over 100 µM, the TGI (NCI-H23 lung) was over 100 µM and the TGI (NCI-H226 lung) was over 100 µM.

— PubChem BioAssay (NCI)
